One data set in a line: in vitro. To be noted: rat, serum, pH 7.4.
For data set [1] the following is noted: 48 h.
For data set [2] the following is noted: 24 h.

With `CC(C)C[C@H](NC(=O)[C@H](CC(=O)O)NC(=O)CNC(=O)[C@H](CCCNC(=N)N)NC(=O)[C@H](CC(C)C)NC(=O)[C@H](CC(N)=O)NC(=O)[C@@H]1CCCN1C(=O)[C@@H](NC(=O)[C@H](C)NC(=O)[C@H](CC(N)=O)NC(=O)COCCOCCOCCOCCOCCN)C(C)C)C(=O)N[C@@H](CCC(N)=O)C(=O)N[C@H](C(=O)N[C@@H](CC(C)C)C(=O)N[C@@H](C)C(=O)N[C@@H](CCC(N)=O)C(=O)N[C@@H](CCCCN)C(=O)N[C@H](C(=O)N[C@@H](C)C(=O)N[C@@H](CCCNC(=N)N)C(=O)N[C@H](C(=O)O)[C@@H](C)O)C(C)C)C(C)C` [Compound 18], in the data set “in vitro”, the amount remaining at 24 h is about 60% and the share remaining at 48 h was about 40%.

As for `CC(C)C[C@H](NC(=O)[C@H](CC(=O)O)NC(=O)CNC(=O)[C@H](CCCNC(=N)N)NC(=O)[C@H](CC(C)C)NC(=O)[C@H](CC(N)=O)NC(=O)[C@@H]1CCCN1C(=O)[C@@H](NC(=O)[C@H](C)NC(=O)[C@H](CC(N)=O)NC(=O)COCCOCCOCCOCCOCCOCCOCCOCCN)C(C)C)C(=O)N[C@@H](CCC(N)=O)C(=O)N[C@H](C(=O)N[C@@H](CC(C)C)C(=O)N[C@@H](C)C(=O)N[C@@H](CCC(N)=O)C(=O)N[C@@H](CCCCN)C(=O)N[C@H](C(=O)N[C@@H](C)C(=O)N[C@@H](CCCNC(=N)N)C(=O)N[C@H](C(=O)O)[C@@H](C)O)C(C)C)C(C)C` [Compound 19], the “peptide remaining intact in rat serum” value in data set [1] is recorded as over 58%. In the data set “in vitro”, this compound showed a share remaining at 24 h of over 70%.

`CC(C)C[C@H](NC(=O)[C@H](CC(=O)O)NC(=O)CNC(=O)[C@H](CCCNC(=N)N)NC(=O)[C@H](CC(C)C)NC(=O)[C@H](CC(N)=O)NC(=O)[C@@H]1CCCN1C(=O)[C@@H](NC(=O)[C@H](C)NC(=O)[C@H](CC(N)=O)NC(=O)CCOCCOCCOCCOCCOCCN)C(C)C)C(=O)N[C@@H](CCC(N)=O)C(=O)N[C@H](C(=O)N[C@@H](CC(C)C)C(=O)N[C@@H](C)C(=O)N[C@@H](CCC(N)=O)C(=O)N[C@@H](CCCCN)C(=O)N[C@H](C(=O)N[C@@H](C)C(=O)N[C@@H](CCCNC(=N)N)C(=O)N[C@H](C(=O)O)[C@@H](C)O)C(C)C)C(C)C` [Compound 20]: in the data set “in vitro”, the fraction remaining at 24 h is about 60% and the amount remaining at 48 h was about 40%.

In “in vitro”, `CC(C)C[C@H](NC(=O)[C@H](CC(=O)O)NC(=O)CNC(=O)[C@H](CCCNC(=N)N)NC(=O)[C@H](CC(C)C)NC(=O)[C@H](CC(N)=O)NC(=O)[C@@H]1CCCN1C(=O)[C@@H](NC(=O)[C@H](C)NC(=O)[C@H](CC(N)=O)NC(=O)CCOCCOCCOCCOCCOCCOCCOCCOCCOCCOCCOCCOCCOCCOCCOCCOCCOCCOCCOCCOCCN)C(C)C)C(=O)N[C@@H](CCC(N)=O)C(=O)N[C@H](C(=O)N[C@@H](CC(C)C)C(=O)N[C@@H](C)C(=O)N[C@@H](CCC(N)=O)C(=O)N[C@@H](CCCCN)C(=O)N[C@H](C(=O)N[C@@H](C)C(=O)N[C@@H](CCCNC(=N)N)C(=O)N[C@H](C(=O)O)[C@@H](C)O)C(C)C)C(C)C` [Compound 23] had a share remaining at 24 h of about 90% and a fraction remaining at 48 h of over 70%.

As for `CC(C)C[C@H](NC(=O)[C@H](CC(=O)O)NC(=O)CNC(=O)[C@H](CCCNC(=N)N)NC(=O)[C@H](CC(C)C)NC(=O)[C@H](CC(N)=O)NC(=O)[C@@H]1CCCN1C(=O)[C@@H](NC(=O)[C@H](CCCCNC(=O)CCCC[C@@H]1SC[C@@H]2NC(=O)N[C@@H]21)NC(=O)[C@H](CC(N)=O)NC(=O)COCCOCCNC(=O)CN(CCN(CCN(CC(=O)O)CC(=O)O)CC(=O)O)CC(=O)O)C(C)C)C(=O)N[C@@H](CCC(N)=O)C(=O)N[C@H](C(=O)N[C@@H](CC(C)C)C(=O)N[C@@H](C)C(=O)N[C@@H](CCC(N)=O)C(=O)N[C@@H](CCCCN)C(=O)N[C@H](C(=O)N[C@@H](C)C(=O)N[C@@H](CCCNC(=N)N)C(=O)N[C@H](C(=O)O)[C@@H](C)O)C(C)C)C(C)C` [Compound 25], in data set [2], the “peptide remaining intact in human plasma” value is recorded as “around 80%”.

Consider `CC(C)C[C@H](NC(=O)[C@H](CC(=O)O)NC(=O)CNC(=O)[C@H](CCCNC(=N)N)NC(=O)[C@H](CC(C)C)NC(=O)[C@H](CC(N)=O)NC(=O)[C@@H]1CCCN1C(=O)[C@@H](NC(=O)[C@H](CCCCNC(=O)CCCC[C@@H]1SC[C@@H]2NC(=O)N[C@@H]21)NC(=O)[C@H](CC(N)=O)NC(=O)CCOCCOCCOCCOCCOCCOCCOCCOCCOCCOCCOCCOCCOCCOCCOCCOCCOCCOCCOCCOCCNC(=O)CN(CCN(CCN(CC(=O)O)CC(=O)O)CC(=O)O)CC(=O)O)C(C)C)C(=O)N[C@@H](CCC(N)=O)C(=O)N[C@H](C(=O)N[C@@H](CC(C)C)C(=O)N[C@@H](C)C(=O)N[C@@H](CCC(N)=O)C(=O)N[C@@H](CCCCN)C(=O)N[C@H](C(=O)N[C@@H](C)C(=O)N[C@@H](CCCNC(=N)N)C(=O)N[C@H](C(=O)O)[C@@H](C)O)C(C)C)C(C)C` [Compound 30], for which the “peptide remaining intact in human plasma” value in data set [2] is listed as “around 80%”.
